Assay results published in patent US7863242B2, “Compositions for down-regulation of CCR5 expression and methods of use thereof” (priority 2003, dated 2011).
Read-outs that look alike come from different tables or passages of the source.

Tests used:
[1] = system: HIV-1 ADA; test: microbe, parasite or virus in culture; settings: for reduction of p24 levels: day 7 after infection; for IC50: read-out: Dm (dose at 50% inhibition, equivalent to IC50 value)
Experimental: (§1) Infectivity Assays: The following viruses were used in infection experiments: HIV-1 IIIb, HIV-1 ADA, HIV-1 BaL, HIV-1 JRFL, HIV-1 JRCSF, and HIV-1 SF162. HIV-1 IIIb is a T cell line-adapted lab strain that uses CXCR4 for entry into cells, whereas the rest are isolates that use CCR5. Viruses were obtained from the National Institutes of Health AIDS Research and Reference Reagent Program.
(§2) For infection of PBMCs, fresh donor PBMCs were cultured for 7 days in medium containing IL-2. On day 7, cells were exposed to the virus for 3 h. Nonadsorbed virus was removed by washing cells with PBS three times. Infected cells were cultured in IL-2 medium. Infection of MDMs was carried out as described before (Perno, 1993). Unless otherwise indicated, PBMCs were infected by using an moi of 0.001, and MDM were infected by using an moi of 0.002. Virus growth was monitored in culture supernatants by measuring p24 antigen levels by ELISA (NEN) or by measuring viral RT activity in an RT assay (Willey, 1988).
(§3) Antiviral Activity of RAPA in PBMCs: The antiviral activity of RAPA was assayed in PBMCs that had been cultured in the presence of RAPA for 7 days before infection. Cells were infected with the X4 HIV-1 IIIb and the R5 HIV-1 ADA strains. Infected cells were cultured in the presence of RAPA (same concentration as during pretreatment) for 7 additional days, during which time virus replication and cell viability were measured.
To test this hypothesis, donor PBMCs were cultured in IL-2 medium in the absence or presence of RAPA (1, 10, and 100 nM). […] Infected cells were cultured in the presence of RAPA (same concentration as during pretreatment) plus 0.1 nM TAK-779. Virus production was determined 7 days after infection.
Donor PBMCs were cultured in IL-2 medium in the absence or presence of HU (0 and 10 uM). After 7 days, cells were infected with HIV-1 ADA. Infected cells were cultured in the presence of HU (same concentration as during pretreatment) plus different concentration of TAK-779 ranging from 0, 2 and 20 nM). Virus production was determined 7 days after infection.
In order to determine the nature and degree of interaction between RAPA and T20, infectivity assays were performed in the presence of the drugs, alone and in combination. The infectivity assays were performed using PBMCs from healthy donors. PBMCs were cultured for 7 days in the presence of IL-2 (100 U/ml) in the presence or absence of RAPA. On day 7, cells were infected by exposure to the R5 strain HIV-1 ADA (m.o.i of 0.001) for 2 h. Non-adsorbed virus was removed by 3 washes with PBS. Infected cells were then plated in RPMI-10 supplemented with IL-2 (100 U/ml) in the presence of different concentrations of RAPA and T20. Each drug concentration was tested in triplicate. Medium was changed in day 3 after infection and drugs were added at the same concentration as before. On day 7 after infection, virus production was measured in the culture supernatants using a commercial p24 antigen ELISA (NCI, Frederick). Cell viability was determined using the MTT assay (Roche).
The antiviral data was then analyzed for synergy using two different methodologies, the Median Effect principle and Three Dimensional modeling.

[2] = system: CCR5 mRNA; test: Semiquantitative RT-PCR of CCR5 transcripts in PBMC cultures; assay type: cell-based, human; settings: PBMCs cultured with IL-2 and drug for 7 days
Experimental: PCR Methodologies: Amplification of CCR5 and β-chemokine RNA sequences was performed by RT-PCR as described (Baba, 1996; Levine, 1996).

[3] = system: CCR5; test: CCR5 surface expression on CD4 and CD8 T lymphocytes in IL-2 cultured PBMCs (flow cytometry, mAb 182); assay type: cell-based, human; settings: days 7 and 10, five donors tested
Experimental: CCR5 surface expression was measured on PBMCs cultured in the presence of IL-2 for 7-10 days.

[4] = system: MIP-1β; test: Extracellular MIP-1β level in PBMC culture supernatants (ELISA); assay type: cell-based, human; settings: for increase of MIP-1β protein versus untreated control: day 10
Experimental: Levels of the β-chemokines MIP-1α, MIP-1β, and RANTES were measured in culture supernatants by using ELISA kits (R & D Systems).
RAPA Increases Extracellular Levels of MIP-1α and MIP-1β in PBMC Cultures: Because lymphocytes and monocytes cultured in the presence of RAPA presented reduced CCR5 RNA and protein levels, the levels of the CCR5 ligands MIP-1α, MIP-1β, and RANTES were measured in supernatants of RAPA-treated PBMC cultures. […] On day 10, percentage of cells expressing CCR5 and supernatant chemokine content were determined for each donor. […] Among the different donors, RAPA-treated cultures contained 6-39-fold higher levels of MIP-1α than untreated cultures. Similarly, MIP-1β levels were increased 17-47-fold in the presence of RAPA as compared with untreated controls. […] Chemokine results obtained in two of the donors, showing disparity of RANTES levels in the presence of RAPA, are depicted in FIG. 3A.
The above results were confirmed by evaluating the effect of RAPA on the secretion of MIP-1β, a chemokine that uses CCR5 as its only receptor, in cultures of PBMCs derived from a donor homozygous for the Δ32 mutation in the CCR5 gene. In this experimental setting, in which MIP-1β cannot be endocytosed by CCR5, the effect of RAPA on MIP-1β protein levels provided information regarding the mechanism by which RAPA increases β-chemokine levels. To this end, stimulated PBMCs from two normal donors and from a CCR5-null donor were cultured in the presence of RAPA as in previous experiments. MIP-1β levels in supernatants were evaluated on day 10. Representative results obtained in one of the normal donors are shown in FIG. 3B next to the results obtained on the CCR5-null donor.

[5] = system: HIV-1 IIIb; test: HIV-1 IIIb replication in PBMCs (p24 assay); assay type: cell-based; settings: Human immunodeficiency virus 1, IIIB, PBMC, 7 days pretreatment, day 7 after infection
Experimental: as §1, §2
as §3, with “Cells were infected with the X4 HIV-1 IIIb and the R5 HIV-1 ADA strains.” left out

[6] = system: MIP-1α; test: Extracellular MIP-1α level in PBMC culture supernatants (ELISA); assay type: cell-based, human; settings: day 10, four donors
[7] = system: CCR5; test: CCR5 cell-surface expression on maturing monocytes (CD14-gated flow cytometry); assay type: cell-based, human; settings: monocytes cultured 5 days, three donors
[8] = system: R5 strains of HIV-1; test: Replication of a panel of five R5 strains of HIV-1 in PBMCs; assay type: cell-based; settings: Human immunodeficiency virus 1, PBMC
Experimental: as §1, §2
RAPA at 0.01 nM inhibited R5 HIV-1 by 10-64% depending on the strains, whereas 0.1 nM RAPA inhibited virus replication by 15-85%. At 1 nM RAPA, all R5 viruses were inhibited by ≧90%.

[9] = system: PBMCs; settings: PBMCs with IL-2, day 7
[10] = system: MDMs; test: Cell viability of infected MDMs (MTT assay); assay type: cell-based, human; settings: end of experiment (day 14 after infection)
Experimental: (§4) To this end, donor monocytes were cultured for 5 days in the presence of RAPA. On day 5, cells were infected with HIV-1 ADA. Infected cells were cultured in the presence of RAPA for an additional 14 days. Virus production was measured on the culture supernatants on days 7, 10, and 14 after infection. Cell viability was measured by the MTT assay at the end of the experiment.

[11] = system: HIV-1 ADA; test: HIV-1 ADA replication in monocyte-derived macrophages (RT assay); assay type: cell-based
Experimental: as §2, §4
In the above-described experiment, monocytes had been pretreated with RAPA during the 5-day differentiation period. To control for the possible interference of RAPA with the process of monocyte differentiation, a new infection experiment in which RAPA was not present during the 5-day monocyte differentiation period was designed. To this end, fresh monocytes were cultured for 5 days in the absence of RAPA. On day 5, cells were infected with HIV-1 ADA and then exposed to RAPA.

[12] = system: HIV-1 SF 162; test: HIV-1 SF 162 replication in monocyte-derived macrophages; assay type: cell-based; settings: Human immunodeficiency virus 1, Macrophage; RAPA at 0.01 nM, additional experiment; read-out: inhibition of HIV-1 SF 162 in MDMs
Experimental: as §2, §4

[13] = Tolerability of Rapamycin in HIV infected volunteers; assay type: in vivo, human; settings: 2 mg/day after 6 mg loading dose, 28 days
Experimental: To assess the expression activity of CCR5 and its effects on levels of CCR5 receptors in vivo, an open-labeled, non-randomized proof of concept trial was performed in which 8 volunteers with established HIV infection were given 2 mg/day of Rapamycin, following a 6 mg loading dose, for 28 days. Peripheral blood for determining expression levels of CCR5 was obtained at the screening visit, days 7, 14 and 28 of the Rapamycin dosing, and at day 42 (which was two weeks following the last dose of Rapamycin).

[14] = system: human lymphocytes; test: Cell cycle analysis of activated PBMCs (propidium iodide, flow cytometry); assay type: cell-based; settings: 4 μM, 24 hours, PBMCs from 2 normal donors
Experimental: Indirubin-3′-monoxime (IM) arrests human lymphocytes in G1 phase. PBMCs from 2 normal donors were activated in absence and presence of 4 μM Indirubin-3′-momoxime (IM) for 24 hours. Cells were then fixed with 70% Ethanol, stained with Propidium Iodide, and analyzed by Flow cytometry. Percentages of cells in each phase of the cell cycle are shown.

[15] = system: HIV-1 ADA; test: Serial passage of HIV-1 ADA in PBMCs, emergence of T20 resistance (RT assay); assay type: cell-based
Experimental: HIV-1 ADA was passaged in PBMCs 21 times in the presence of RAPA, T-20 or RAPA+T20. After every passage, virus content in the culture supernatant was measured using the RT assay.
HIV-1 replication in the presence of T20 leads to the emergence of drug resistant strains in vitro and in vivo, and this resistance is associated with mutations in the aa 36-45 of gp 41. […] To this end, HIV-1 ADA was passaged weekly for 24 weeks in the presence of RAPA, T20 and RAPA/T20 combined.

[16] = Human immunodeficiency virus 1, PBMC, 168 h, read-out: Fa (fractional inhibition)

Compound: NC(=O)NO [HU, hydroxyurea]
- reduction of p24 levels ([1]; 10 uM of HU alone): approximately 60%
- CCR5 transcripts (semiquantitative RT-PCR) [2]: decreased amounts of CCR5 transcripts
- concentrations that down-regulated CCR5 surface expression on CD4 lymphocytes [3]: ≥ 50 µM

Compound: CO[C@H]1C[C@@H]2CC[C@@H](C)[C@@](O)(O2)C(=O)C(=O)N2CCCC[C@H]2C(=O)O[C@H]([C@H](C)C[C@@H]2CC[C@@H](O)[C@H](OC)C2)CC(=O)[C@H](C)/C=C(\C)[C@@H](O)[C@@H](OC)C(=O)[C@H](C)C[C@H](C)/C=C/C=C/C=C/1C [RAPA, rapamycin]
- increase of MIP-1β protein versus untreated control ([4]; CCR5-null donor (Δ32 homozygous)): 1.2 fold
- MIP-1β level versus untreated controls ([4]; day 10, four donors): 17-47 fold
- increase of MIP-1β protein versus untreated control ([4]; normal donor): 9.3 fold
- inhibition at 0.01 µM ([5]; 10 nM RAPA): 13.5%
- inhibition at 0.1 µM ([5]; 100 nM RAPA): 32%
- MIP-1α level versus untreated cultures [6]: 6-39 fold
- concentrations giving consistent down-regulation of CCR5 surface expression on monocytes [7]: ≥ 10 pM
- inhibition at 10 pM ([8]; read-out: inhibition of R5 HIV-1, depending on the strains): 10 to 64%
- inhibition at 0.0001 µM ([8]; read-out: inhibition of R5 HIV-1 replication): 15 to 85%
- inhibition at 0.001 µM ([8]; read-out: inhibition of all R5 viruses): ≥ 90%
- drug concentration at which drug toxicity was observed [9]: above 10^3 nM
- concentrations at which cell viability was reduced [10]: ≥ 10 nM
- inhibition of virus replication in already differentiated macrophages ([11]; 1 nM RAPA added after infection on day 5, day 14 after infection, one value per donor): ~80%
- inhibition at 0.001 µM ([11]; Human immunodeficiency virus 1, Macrophage, 1 nM RAPA added after infection on day 5, day 14 after infection, one value per donor, read-out: inhibition of virus replication in already differentiated macrophages): ~60%
- inhibition at 10 pM ([11]; Human immunodeficiency virus 1, Macrophage, RAPA at 0.01 nM, additional experiment, read-out: inhibition of HIV-1 ADA in MDMs): 64%
- inhibition of virus production in MDMs ([11]; RAPA 0.1-100 nM, present during 5-day differentiation, day 14 after infection): 70-95%
- IC50 ([1]; Human immunodeficiency virus 1, PBMC, 168 h): 0.31 nM
- inhibition at 30 pM [1, 16]: 1.7%
- inhibition at 60 pM [1, 16]: 10.2%
- inhibition at 0.00012 µM [1, 16]: 11.4%
- inhibition at 0.00025 µM [1, 16]: 54%
- inhibition at 0.0005 µM [1, 16]: 62%
- inhibition at 0.001 µM [1, 16]: 88%
- inhibition at 10 pM [12]: 45%
- tolerability [13]: well-tolerated
- concentrations that down-regulated CCR5 surface expression on CD4 lymphocytes [3]: ≥ 0.001 µM

Compound: Cc1ccc(-c2ccc3c(c2)C=C(C(=O)Nc2ccc(C[N+](C)(C)C4CCOCC4)cc2)CCC3)cc1.[Cl-] [TAK-779, N,N-dimethyl-N-[4-[[[2-(4-methylphenyl)-6,7-dihydro-5H-benzocyclohepten-8-yl]carbonyl]amino]benzyl]tetrahydro-2H-pyran-4-aminium chloride]
- reduction of p24 levels ([1]; 2 nM of TAK-779 alone): about 20%
- inhibition at 0.0001 µM ([1]; Human immunodeficiency virus 1, PBMC, 168 h, read-out: inhibition of virus replication): 21%

Compound: Indirubin-3′-monoxime
- percentage of cells in G1 phase versus untreated control [14]: the % of cells in G1 increases

Compound: enfuvirtide
- antiviral activity on passaged virus ([15]; T20 100 nM, from the 11th passage onwards): did not exert antiviral activity
- sensitivity of passaged virus to T20 ([15]; T20 alone, 10th passage): reduced sensitivity to T20
- inhibition of virus replication ([15]; T20 alone, initial 9 passages): > 75%
- Fa (fractional inhibition) ([1]; T-20 1.5 nM alone, p24 day 7): 0.210
- Fa (fractional inhibition) ([1]; T-20 3.12 nM alone, p24 day 7): 0.260
- Fa (fractional inhibition) ([1]; T-20 6.25 nM alone, p24 day 7): 0.400
- Fa (fractional inhibition) ([1]; T-20 12.5 nM alone, p24 day 7): 0.600
- Fa (fractional inhibition) ([1]; T-20 25 nM alone, p24 day 7): 0.810
- Fa (fractional inhibition) ([1]; T-20 50 nM alone, p24 day 7): 0.980
- IC50 ([1]; drug used alone, p24 day 7): 6.16 nM
